Read-outs that look alike come from different tables or passages of the source. Values belong to the molecule of their own block, whether it stands above or below them.
Columns and labels:
SGLT5 [1] = biological target: T1, SGLT5 (Homo sapiens, UniProt A0PJK1); assay: Time dependent specific uptake of [14C]-monosaccharides by T-Rex 293-hSGLT5 cells (FIG. 3); assay type: cell-based; conditions: 1 mM monosaccharide, 5-60 min, tetracycline induced T-Rex 293-hSGLT5 cells
T1 construct: expressed in transfected cells; host or cells: T-Rex 293 cells (Invitrogen), stably transfected with pT-Rex-Dest30-hSGLT5; expression induced with tetracycline; deposited clone DSM ACC3096
T1 sequence (A0PJK1 1-596): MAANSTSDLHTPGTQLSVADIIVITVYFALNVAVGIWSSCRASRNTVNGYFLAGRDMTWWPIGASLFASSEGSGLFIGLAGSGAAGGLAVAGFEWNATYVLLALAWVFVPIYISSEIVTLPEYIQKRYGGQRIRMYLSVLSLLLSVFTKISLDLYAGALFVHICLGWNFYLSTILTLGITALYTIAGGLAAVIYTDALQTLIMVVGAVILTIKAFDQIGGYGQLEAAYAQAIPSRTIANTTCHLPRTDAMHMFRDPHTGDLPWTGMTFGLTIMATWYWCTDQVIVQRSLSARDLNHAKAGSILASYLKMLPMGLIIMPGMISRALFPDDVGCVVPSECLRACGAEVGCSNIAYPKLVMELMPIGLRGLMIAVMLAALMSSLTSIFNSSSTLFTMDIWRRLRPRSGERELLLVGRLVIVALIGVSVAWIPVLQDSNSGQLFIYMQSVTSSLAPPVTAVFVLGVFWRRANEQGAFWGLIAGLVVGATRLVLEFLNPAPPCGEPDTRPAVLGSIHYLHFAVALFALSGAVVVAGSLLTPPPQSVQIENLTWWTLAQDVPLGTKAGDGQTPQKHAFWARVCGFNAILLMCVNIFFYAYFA
Method: [^14C]-saccharide uptake experiments: 30000 cells per well were seeded in white poly-D-lysine-coated 96-well plates and incubated over night. The expression of hSGLT5 was induced 24 h before the start of uptake experiments by the addition of 1 μg/ml tetracycline to the cells. For the assay, cells were washed twice with 250 μl pre-treatment buffer [140 mM cholinchloride in basal buffer (10 mM HEPES; 5.4 mM KCl; 2.8 mM CaCl2*2 H2O; 1.2 mM MgSO4*7 H2O; 0.1% BSA, pH 7.4) and incubated in 200 μl pre-treatment buffer for 25 min at 37° C. Pre-treatment buffer was removed and 200 μl uptake buffer was added to the cells (140 mM NaCl in basal buffer containing 1 mM cold monosaccharide [either glucose, fructose, mannose, galactose or alphamethyl glucopyranoside (AMG), respectively]+0,6 μCi [^14C]-labelled monosaccharide [either glucose, fructose, mannose, galactose or alpha-methyl glucopyranoside (AMG), respectively] (Hartmann Analytics, Mannheim, Germany) and 10 μM Cytochalasin B. After incubation for 5, 10, 30 and 60 minutes at 37° C., the cells were washed three times with 300 μl PBS (Cambrex, Verviers, Belgium) and then lysed in 0.1 N NaOH with intermittent shaking for 5 min. The lysate was mixed with 200 μl MikroScint 40 Scintillator, shaken for 15 min and counted for radioactivity in the TopCount NXT (Canberra Packard, Schwadorf, Austria). Specific sugar uptake was determined by subtracting non-specific uptake of each sugar (in the presence of choline chloride) from total uptake of the same sugar (in the presence of sodium chloride).
Furthermore, a protocol was established to measure the specific uptake of monosaccharides e.g. mannose, fructose, glucose, AMG and galactose by hSGLT5, It could be shown that the transporter takes up mannose and fructose with high affinity and hardly transports glucose, AMG and galactose (FIG. 3). […] Specific uptake was calculated by subtracting the respective monosaccharide uptake in the presence of choline chloride from the total uptake of the same monosaccharide in the presence of sodium chloride.

SGLT5 [2] = biological target: T1, SGLT5; assay: Km-determination for mannose, fructose and AMG uptake by T-Rex 293-hSGLT5 cells; assay type: cell-based; conditions: for Km: specific (sodium dependent) uptake of [14C]-sugar, 4 h, T-Rex 293-hSGLT5 cells, three assays in parallel, read-out: Affinity for SGLT5 (Km)
Method: (§1) [^14C]-monosaccharide uptake inhibition experiments: Stable cell lines overexpressing human SGLT-5 were used for the sodium-dependent monosaccharide transport inhibition assay. Cells were pre-incubated in 200 μl uptake buffer (10 mM HEPES, 137 mM NaCl, 5.4 mM KCl, 2.8 mM CaCl2, 1.2 mM MgCl2, 50 μg/ml Gentamycin, 0.1% BSA) for 25 minutes at 37° C. 10 μM Cytochalasin B and test compound was added at different concentrations 15 minutes before the initiation of the uptake experiment.
(§2) The uptake reaction was started by the addition of 0.6 μCi [^14C]-labelled monosaccharide i.e. [^14C]-labeled alpha-methyl glucopyranoside (AMG), glucose, fructose, mannose or myo-inositol, in 0.1 mM AMG (or the respective non-radioactive monosaccharide).
(§3) After incubation for 60 minutes at 37° C., the cells were washed three times with 300 μl PBS (Cambrex, Verviers, Belgium) and then lysed in 0.1 N NaOH with intermittent shaking for 5 minutes. The lysate was mixed with 200 μl MicroScint 40 and shaken for 15 minutes and counted for radioactivity in the TopCount NXT (Canberra Packard, Schwadorf, Austria). The cells were pre-incubated in pre-treatment buffer (uptake buffer containing choline chloride instead of sodium chloride) for 25 minutes prior to addition of uptake buffer.
Km-determination for mannose, fructose and Alpha-Methylglucose (AMG) uptake by SGLT5: The uptake of Mannose, Fructose and AMG was assayed as described under “[^14C]-monosaccharide uptake inhibition experiments” in the absence (nonspecific uptake) or presence of sodium (Total uptake) in the buffer at different concentrations of the respective monosaccharide for 4 h. From the difference of Total uptake and Nonspecific uptake the Specific uptake was calculated and the Km was determined using the Program Graph Pad Prism (LaJolla, Calif., USA).
(§4) The measured affinity curves measured in three assays run in parallel are shown in FIG. 4A (for mannose), 4B (for fructose) and 4C (for AMG).

SGLT5 [3] = biological target: T1, SGLT5; assay: [14C]-monosaccharide uptake inhibition assay, [14C]-mannose as substrate, stable cell lines overexpressing human SGLT-5; assay type: cell-based; conditions: for IC50 / pIC50 ± SEM for inhibition of hSGLT-5: [14C]-mannose as substrate
Method: [^14C]-monosaccharide uptake inhibition experiments: Stable cell lines overexpressing human SGLT-5 were used for the sodium-dependent monosaccharide transport inhibition assay. […] The uptake reaction was started by the addition of 0.6 μCi [^14C]-labelled monosaccharide i.e. [^14C]-labeled alpha-methyl glucopyranoside (AMG), glucose, fructose, mannose or myo-inositol, in 0.1 mM AMG (or the respective non-radioactive monosaccharide). After incubation for 60 minutes at 37° C., the cells were washed three times with 300 μl PBS (Cambrex, Verviers, Belgium) and then lysed in 0.1 N NaOH with intermittent shaking for 5 minutes. The lysate was mixed with 200 μl MicroScint 40 and shaken for 15 minutes and counted for radioactivity in the TopCount NXT (Canberra Packard, Schwadorf, Austria). The cells were pre-incubated in pre-treatment buffer (uptake buffer containing choline chloride instead of sodium chloride) for 25 minutes prior to addition of uptake buffer. A dose-response curve was fitted to an empirical four-parameter model using XL Fit (IDBS, Guildford, UK) to determine the inhibitor concentration at half-maximal response (IC50). Human SGLT-5 was identified to be a mannose transporter and the inhibition of hSGLT-5 was assessed by a newly established [^14C]-mannose uptake assay.

[4] = substrate: O=C(CO)[C@@H](O)[C@H](O)[C@H](O)CO; assay: Km-determination for mannose, fructose and AMG uptake by T-Rex 293-hSGLT5 cells; assay type: cell-based, human; conditions: other: specific (sodium dependent) uptake of [14C]-sugar, 4 h, three assays in parallel, 37.0 °C
Method: as §1, §2
as §3, with “The cells were pre-incubated in pre-treatment buffer (uptake buffer containing choline chloride instead of sodium chloride) for 25 minutes prior to addition of uptake buffer.” left out
as §4

[5] = 60 minutes at 37° C., at least three independent experiments, read-out: Mean IC50 for inhibition of hSGLT-5

- IC50 (SGLT5 [3]; [5]): 1100 nM
- pIC50 ± SEM for inhibition of hSGLT-5 (SGLT5 [3]; given with negative sign): 5.97 ± 0.19
Molecule: Cc1cc(O)c(C(=O)CCc2ccc3occc3c2)c(O[C@@H]2O[C@H](CO)[C@@H](O)[C@H](O)[C@H]2O)c1 [Compound T1095A]

- IC50 (SGLT5 [3]; [5]): 820 nM
Molecule: CCOc1ccc(Cc2cc([C@@H]3O[C@H](CO)[C@@H](O)[C@H](O)[C@H]3O)ccc2Cl)cc1 [Dapagliflozin]

- IC50 (SGLT5 [3]; [5]): 1500 nM
Molecule: O=C(CCc1ccc(O)cc1)c1c(O)cc(O)cc1O[C@@H]1O[C@H](CO)[C@@H](O)[C@H](O)[C@H]1O [Phlorizin]

- IC50 (SGLT5 [3]; [5]): 1100 nM
- pIC50 ± SEM for inhibition of hSGLT-5 (SGLT5 [3]; given with negative sign): 5.95
Molecule: COc1ccc(Cc2ccccc2O[C@@H]2O[C@H](CO)[C@@H](O)[C@H](O)[C@H]2O)cc1 [Sergliflozin]

Continued, molecule first:

Molecule: COC1OC(CO)C(O)C(O)C1O (stereo not drawn) [AMG, alpha-methyl glucopyranoside]
- specific uptake / affinity for hSGLT5 (in words) (SGLT5 [1]): very low affinity
- Km fold higher than the Km for fructose (SGLT5 [2]; ratio of Km values): at least 5 fold
- Km fold higher than the Km for mannose (SGLT5 [2]; ratio of Km values): at least 33 fold
- Km (SGLT5 [2]): 10.1 mM

Molecule: OC[C@H]1O[C@@H](c2ccc(F)c(Cc3cc4ccccc4s3)c2)[C@H](O)[C@@H](O)[C@@H]1O [ASP-1941]
- IC50 (SGLT5 [3]; [5]): 740 nM

Molecule: Cc1ccc([C@@H]2O[C@H](CO)[C@@H](O)[C@H](O)[C@H]2O)cc1Cc1ccc(-c2ccc(F)cc2)s1 [Canagliflozin]
- IC50 (SGLT5 [3]; [5]): 1700 nM
- pIC50 ± SEM for inhibition of hSGLT-5 (SGLT5 [3]; given with negative sign): 5.77 ± 0.12

Molecule: OC[C@H]1O[C@@H](c2ccc(Cl)c(Cc3ccc(O[C@H]4CCOC4)cc3)c2)[C@H](O)[C@@H](O)[C@@H]1O [Compound A, D-glucitol, 1,5-anhydro-1-C-[4-chloro-3-[[4-[[(3S)-tetrahydro-3-furanyl]oxy]phenyl]methyl]phenyl]-, (1S)-]
- IC50 (SGLT5 [3]; [5]): 1100 nM
- IC50 (SGLT5 [3]; given with negative sign, read-out: pIC50 ± SEM for inhibition of hSGLT-5 (converted)): 1050 nM

Molecule: O=C(CO)[C@@H](O)[C@H](O)[C@H](O)CO [Fructose]
- specific uptake / affinity for hSGLT5 (in words) (SGLT5 [1]): high affinity
- Km fold higher than the Km for mannose (SGLT5 [2]; ratio of Km values): 6.67 fold
- Km (SGLT5 [2]): ≤ 2 mM

Molecule: Cc1c(Cc2ccc(OC(C)C)cc2)c(O[C@@H]2O[C@H](CO)[C@@H](O)[C@H](O)[C@H]2O)nn1C(C)C [Remogliflozin]
- selectivity over SGLT-2 (SGLT5 [3]; SGLT-5 versus SGLT-2): < 15 fold
- IC50 (SGLT5 [3]; [5]): 190 nM

B1: SGLT5 (Homo sapiens) (protein)
chain: T1 sequence (A0PJK1 1-596)
notes: expressed in transfected cells; host or cells: T-Rex 293 cells (Invitrogen), stably transfected with pT-Rex-Dest30-hSGLT5; expression induced with tetracycline; deposited clone DSM ACC3096
- Km [4]: 2.0 mM
